In brackets after ≈: the same amount, converted by molar mass.
Tests used:
Plasmodium falciparum [1] = assay: Antimalarial activity against chloroquine-resistant Plasmodium falciparum K14 infected in human red blood cells assessed as inhibition of parasite growth incubated for 42 hrs by [3H]-hypoxanthine incorporation assay; type: functional, organism-based, Red blood cell; conditions: K14, Erythrocyte
Plasmodium falciparum [2] = assay: (§1) Antimalarial activity against chloroquine resistant Plasmodium falciparum K1 infected in human erythrocyte assessed as inhibition of parasite growth preincubated with compound for 24 hrs followed by hypoxanthine addition and measured after 24 hrs by [3H]-hypoxanthine incorporation based liquid scintillation counter; type: functional, organism-based
Plasmodium falciparum [3] = assay: as §1, with “sensitive” for “resistant”, “3D7” for “K1”; type: functional, organism-based; conditions: 3D7, Erythrocyte
Plasmodium berghei [4] = assay: Antimalarial activity against Plasmodium berghei GFP ANKA infected in NMRI mouse assessed as reduction in blood parasitemia level measured on day 4 by FACS analysis; type: functional, organism-based
Plasmodium berghei [5] = assay: Antiplasmodial activity against luciferase expressing hepatic stage Plasmodium berghei sporozoites infected in human Huh-7 cells assessed as inhibition of parasite infection preincubated with cells for 1 hrs followed by parasite infection and measured after 48 hrs by bioluminescence assay; type: functional, organism-based
Plasmodium falciparum [6] = assay: Antimalarial activity against chloroquine-sensitive Plasmodium falciparum 3D7 infected in human erythrocyte assessed as inhibition of parasite growth incubated for 66 hrs by [3H]-hypoxanthine incorporation assay based liquid scintillation spectrometric method; type: functional, organism-based; conditions: 3D7, Erythrocyte
Plasmodium falciparum [7] = assay: Antimalarial activity against highly chloroquine resistant Plasmodium falciparum FcM29 assessed as inhibition of parasite growth measured after 48 hrs by classical radioactive microdilution method; type: functional, organism-based; conditions: FcM29, 48 h
Plasmodium falciparum [8] = assay: Antimalarial activity against chloroquine resistant Plasmodium falciparum FcR3 assessed as inhibition of parasite growth measured after 48 hrs by classical radioactive microdilution method; type: functional, organism-based; conditions: FcR3, 48 h
Plasmodium falciparum [9] = assay: Antimalarial activity against Plasmodium falciparum K1 assessed as inhibition of parasite growth; type: functional, organism-based
Plasmodium falciparum [10] = assay: Antimalarial activity against Plasmodium falciparum 3D7 infected in human plasma assessed as inhibition of parasite growth by Giema staining based assay; type: functional, organism-based; conditions: 3D7, Plasma
Plasmodium falciparum [11] = assay: Antimalarial activity against chloroquine-resistant Plasmodium falciparum W2 assessed as inhibition of parasite growth; type: functional, organism-based
Plasmodium falciparum [12] = assay: Antimalarial activity against chloroquine sensitive Plasmodium falciparum NF54 assessed as inhibition of parasite growth by [3H]-hypoxanthine incorporation assay; type: functional, organism-based
Plasmodium falciparum [13] = assay: Antimalarial activity against chloroquine resistant Plasmodium falciparum K1 assessed as inhibition of parasite growth by [3H]-hypoxanthine incorporation assay; type: functional, organism-based
Plasmodium falciparum [14] = assay: Antimalarial activity against chloroquine sensitive Plasmodium falciparum infected in human red blood cells assessed as inhibition of liberation and reinvasion steps of the erythrocytes by parasites measured after 72 hrs by titrated hypoxanthine incorporation assay; type: functional, organism-based, Red blood cell; conditions: Erythrocyte
Plasmodium falciparum [15] = assay: Antimalarial activity against chloroquine resistant Plasmodium falciparum FcB1 infected in human red blood cells assessed as inhibition of liberation and reinvasion steps of the erythrocytes by parasites measured after 72 hrs by titrated hypoxanthine incorporation assay; type: functional, organism-based, Red blood cell; conditions: FcB1, Erythrocyte
Plasmodium falciparum [16] = assay: Antimalarial activity against chloroquine and quinine sensitive Plasmodium falciparum assessed as inhibition of parasite growth; type: functional, organism-based
Plasmodium falciparum [17] = assay: Antimalarial activity against Plasmodium falciparum 3D7 infected in human erythrocytes assessed as reduction in parasite growth measured after 72 hrs by microscopic analysis; type: functional, organism-based; conditions: 3D7, Erythrocyte
Plasmodium falciparum [18] = assay: Antimalarial activity against Plasmodium falciparum Dd2 infected in human erythrocytes assessed as reduction in parasite growth measured after 72 hrs by microscopic analysis; type: functional, organism-based; conditions: Dd2, Erythrocyte
Plasmodium falciparum [19] = assay: Antimalarial activity against chloroquine and antifolate resistant Plasmodium falciparum K1 infected in human erythrocyte preincubated for 24 hrs followed by hypoxanthine addition and measured after 18 to 20 hrs by [3H]-hypoxanthine incorporation assay; type: functional, organism-based
Plasmodium falciparum [20] = assay: Antimalarial activity against Plasmodium falciparum Cam3.I^R539T assessed as reduction in parasite survival at 88 nM measured after 6 hrs relative to control; type: functional
Plasmodium falciparum [21] = assay: Antimalarial activity against Plasmodium falciparum Cam3.I^R539T assessed as reduction in parasite survival at 175 nM measured after 6 hrs relative to control; type: functional
Plasmodium falciparum [22] = assay: Antimalarial activity against Plasmodium falciparum Cam3.I^R539T assessed as reduction in parasite survival at 49 nM measured after 6 hrs relative to control; type: functional
Plasmodium falciparum [23] = assay: Antimalarial activity against Plasmodium falciparum Cam3.I^R539T assessed as reduction in parasite survival at 350 nM measured after 6 hrs relative to control; type: functional
Plasmodium falciparum [24] = assay: Antimalarial activity against Plasmodium falciparum Cam3.I^R539T assessed as reduction in parasite survival at 700 nM measured after 6 hrs relative to control; type: functional
[25] = Cytotoxicity against human MRC5 cells assessed as inhibition of cell growth incubated for 7 days by MTT assay; type: toxicity, cell-based
Plasmodium falciparum [26] = assay: Antimalarial activity against chloroquine-resistant Plasmodium falciparum K1 infected in human erythrocytes incubated for 72 hrs by parasite lactate dehydrogenase assay; type: functional, organism-based; conditions: K1, Erythrocyte
Plasmodium falciparum [27] = assay: Antimalarial activity against chloroquine-resistant Plasmodium falciparum W2 assessed as inhibition of parasite growth by parasite lactate dehydrogenase assay; type: functional, organism-based
Plasmodium falciparum [28] = assay: Antimalarial activity against chloroquine-sensitive Plasmodium falciparum D6 assessed as inhibition of parasite growth by parasite lactate dehydrogenase assay; type: functional, organism-based

CCOc1ccc(N2C(=O)C3(c4ccccc4Cc4ccccc43)C23c2ccccc2-c2ccccc23)cc1 gave an IC50 (Plasmodium falciparum [1]) of 5000 nM.
CN1CCN(C2CCN(C(=O)CC3CCC4(CC3)OOC3(OO4)C4CC5CC(C4)CC3C5)CC2)CC1 (stereo not given) showed an IC50 (Plasmodium falciparum [2]) of 1.1 nM, an IC50 (Plasmodium falciparum [3]) of 0.8 nM and an EC50 (Plasmodium berghei [4]) of 1.33 mg/kg. It also gave an EC90 (Plasmodium berghei [4]) of 4.18 mg/kg.
CC(C)(C)C(=O)C1C(c2ccccc2)(c2ccccc2)N=NC12C(=O)N1[C@@H](C(=O)OC(c3ccccc3)c3ccccc3)C(C)(C)S[C@@H]12 (stereo not given in full) showed an IC50 (Plasmodium berghei [5]) of 3320 nM.
For CCCCCCCCCCCCCCC[C@@H](O)CC1(OC)CCC2(C=CC(=O)C=C2)O1 (stereo not given in full), the IC50 (Plasmodium falciparum [6]) was 480 nM.
CC1(C)COC2(CCC(NC3CCC(Nc4ccnc5cc(Cl)ccc45)CC3)CC2)OO1 (stereo not given) gave an IC50 (Plasmodium falciparum [7]) of 10 nM and an IC50 (Plasmodium falciparum [8]) of 12 nM.
COC(=O)C12C=C(OC)[C@]3(Cl)C(C)(C=C(C4=C[C@H](O)[C@@H]5O[C@]5(CC=C(C)C)[C@@H]4O)[C@]3(O)C13OC(=O)c1c(O)cc(C)cc1O3)C2 (stereo not given in full) gave an IC50 (Plasmodium falciparum [9]) of 2710 nM.
Work on CC1=CC(=O)CC(C)(C)[C@@]12C=C[C@H](C)O2 yielded an IC50 (Plasmodium falciparum [10]) of 27 nM.
Work on COC(=O)C1=CO[C@@H](C)[C@@H]2CN3CC[C@@]4(C(=O)Nc5ccccc54)[C@H]3C[C@H]12 yielded an IC50 (Plasmodium falciparum [11]) of 17000 ng/mL (≈ 46200 nM).
Compound c1cc(C2CCC3(CC2)OOC2(O3)C3CC4CC(C3)CC2C4)ccc1OCCN1CCOCC1 (stereo not given) has an IC50 (Plasmodium falciparum [12]) of 2.8 ng/mL (≈ 5.96 nM) and an IC50 (Plasmodium falciparum [13]) of 2.8 ng/mL (≈ 5.96 nM).
Work on Clc1ccc2c(NCCNC3CCC4(CC3)OOC3(c5ccccc5)CC(c5ccccc5)=CC3O4)ccnc2c1 (stereo not given) yielded an IC50 (Plasmodium falciparum [14]) of 8 nM and an IC50 (Plasmodium falciparum [15]) of 21 nM.
For CCOC(=O)C1=C2N=C(c3cccnc3)NN2C2=C(C(=O)CCC2)C12C(=O)Nc1ccc(F)cc12 (stereo not given), the IC50 (Plasmodium falciparum [16]) was 122 nM.
Compound CC(C)(C)OC(=O)C1C(c2ccccc2)(c2ccccc2)C12C(=O)N1[C@@H](C(=O)OC(c3ccccc3)c3ccccc3)C(C)(C)S[C@@H]12 (stereo not given in full) has an IC50 (Plasmodium berghei [5]) of 2670 nM.
For CCOC(=O)C1=C2N=C(c3ccncc3)NN2C2=C(C(=O)CCC2)C12C(=O)Nc1ccccc12 (stereo not given), the IC50 (Plasmodium falciparum [16]) was 295 nM.
Compound OCCCCCCC1COOC2(CCCCCCCCCCC2)OOC1 has an EC50 (Plasmodium falciparum [17]) of 332 nM and an EC50 (Plasmodium falciparum [18]) of 897 nM.
In the case of C=CCN1C(=O)[C@]2(CC=CN3c4ccccc4C(=O)[C@@]32CC=C)c2ccccc21, the IC50 (Plasmodium falciparum [19]) is reported as 9300 nM.
CC(C)(N)CNC(=O)CC1CCC2(CC1)OOC1(O2)C2CC3CC(C2)CC1C3 (stereo not given) showed an IC50 (Plasmodium falciparum [12]) of 0.54 ng/mL (≈ 1.38 nM) and an IC50 (Plasmodium falciparum [13]) of 0.57 ng/mL (≈ 1.45 nM).
In the case of c1cc(C2CCC3(CC2)OOC2(O3)C3CC4CC(C3)CC2C4)ccc1OCCC1CCNCC1 (stereo not given), the Activity (Plasmodium falciparum [20]) is reported as 0%, the Activity (Plasmodium falciparum [21]) is reported as 0% and the Activity (Plasmodium falciparum [22]) is reported as 0.76%. The Activity (Plasmodium falciparum [23]) was 0% and the Activity (Plasmodium falciparum [24]) was 0%.
Work on COc1cc2c(cc1OC)[C@]13C[C@@H](OC)C=CC1=CCN3CC2 [ERYSOTRINE] yielded an IC50 at 7 days [25] of over 64000 nM and an IC50 (Plasmodium falciparum [26]) of 20600 nM.
Work on COc1cc2c(cc1O)[C@]13C[C@@H](OC)C=CC1=CCN3CC2 [ERYSOVINE] yielded an IC50 at 7 days [25] of over 64000 nM and an IC50 (Plasmodium falciparum [26]) of 4100 nM.
With CC1(C)CC(O)(Cc2ccc(C3CCC4(CC3)OOC3(O4)C4CC5CC(C4)CC3C5)cc2)CC(C)(C)N1 (stereo not given) the Activity (Plasmodium falciparum [20]) was 0.17%, the Activity (Plasmodium falciparum [21]) was 0.12% and the Activity (Plasmodium falciparum [22]) was 1.29%. For the same compound, the Activity (Plasmodium falciparum [23]) was 0% and the Activity (Plasmodium falciparum [24]) was 0%.
With Cc1ccc(S(=O)(=O)N2CCC3(CC2)OOC(C2CCC(C)CC2)OO3)cc1 (stereo not given) the IC50 (Plasmodium falciparum [27]) was 830 nM and the IC50 (Plasmodium falciparum [28]) was 700 nM.

— ChEMBL document CHEMBL5126551, “Spiral molecules with antimalarial activities: A review” (Eur J Med Chem, 2022)
